# Data as given in US20220251163A1 (Sinopep-Allsino Biopharmaceutical Co., Ltd., priority 2019, published 2022).
# pEC50: −log10 of the molar value. Where two headings read alike, the source gives them in different places. *1 amine or outer side, *2 acyl side, *3 side chain or, on linkers, in order; H or OH if unused. Where a SMILES comes first, the peptide text is derived from it. Side-chain parts run from the residue outwards. The star is where a group is joined. C18 diacid = O=C(O)CCCCCCCCCCCCCCCCC(=O)*; γGlu = O=C(O)[C@H](CCC(=O)[*:2])N[*:1]; AEEA = NCCOCCOCC(=O)O
# Legend:
# mGIPR = target: T1, mGIPR (Mus musculus, UniProt Q0P543); experiment: GIPR agonist activity, cAMP in transfected HEK293 cells; type: cell-based
# T1 construct: expressed in transfected cells; host or cells: HEK293
# T1 sequence (Q0P543 19-460): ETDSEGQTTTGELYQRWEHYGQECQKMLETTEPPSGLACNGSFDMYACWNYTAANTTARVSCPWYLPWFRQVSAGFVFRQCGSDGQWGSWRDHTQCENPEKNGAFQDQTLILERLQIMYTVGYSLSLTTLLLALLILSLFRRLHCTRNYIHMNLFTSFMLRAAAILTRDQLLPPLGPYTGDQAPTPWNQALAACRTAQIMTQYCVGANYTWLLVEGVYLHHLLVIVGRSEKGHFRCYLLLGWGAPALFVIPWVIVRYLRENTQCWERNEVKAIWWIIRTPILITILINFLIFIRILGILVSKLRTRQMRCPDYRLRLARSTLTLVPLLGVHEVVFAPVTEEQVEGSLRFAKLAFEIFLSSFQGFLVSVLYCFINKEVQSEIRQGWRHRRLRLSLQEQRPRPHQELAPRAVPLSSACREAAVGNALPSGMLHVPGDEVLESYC
# Experimental: HEK293 cells were co-transfected with cDNA encoding GLP-1R or GIPR. In a test for determining the compound, the cells were inoculated in a 96-well plate 2 h in advance, the polypeptide compound was dissolved with DMSO, and diluted to different multiples with a culture medium containing 0.1% bovine serum albumin and added to the co-transfected cells.
# mGLP-1R = target: T2, mGLP-1R (Mus musculus, UniProt O35659); experiment: GLP-1R agonist activity, cAMP in transfected HEK293 cells; type: cell-based
# T2 construct: expressed in transfected cells; host or cells: HEK293
# T2 sequence (O35659 22-463): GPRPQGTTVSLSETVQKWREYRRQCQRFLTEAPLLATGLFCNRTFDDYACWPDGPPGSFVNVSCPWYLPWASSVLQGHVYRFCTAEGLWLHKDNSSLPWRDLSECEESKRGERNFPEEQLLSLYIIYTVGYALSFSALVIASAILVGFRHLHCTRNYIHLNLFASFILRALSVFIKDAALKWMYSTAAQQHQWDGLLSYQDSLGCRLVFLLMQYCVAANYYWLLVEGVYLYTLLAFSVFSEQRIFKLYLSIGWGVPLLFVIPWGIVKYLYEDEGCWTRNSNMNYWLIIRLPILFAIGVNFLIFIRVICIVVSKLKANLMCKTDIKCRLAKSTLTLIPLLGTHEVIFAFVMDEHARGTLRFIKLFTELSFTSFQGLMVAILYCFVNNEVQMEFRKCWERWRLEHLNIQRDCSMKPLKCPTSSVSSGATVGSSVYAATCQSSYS
# ob/ob mice = experiment: Blood glucose reducing experiment, single subcutaneous injection in ob/ob mice; type: in vivo; conditions: 100 μg/kg single s.c.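 Also: random blood glucose read at each time point, decrease rate given as percentage fall versus the model control group.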
# [1] = Effect on random weight of ob/ob mice after single subcutaneous injection; type: in vivo; conditions: 100 μg/kg single s.c., X ± s, n = 7
# Experimental: The mice in each group received random blood glucose value measurement before (0 h) administration and 2, 4, 6, 10 and 24 h after administration, and then the time for measuring the random blood glucose was adjusted and prolonged to 34, 48, 58 or 72 h after administration according to the blood glucose condition of the mice in each group. Meanwhile, the random weight of the mice in each group before (0 h) administration and 24 h after administration was weighed, and then the random weight of the mice corresponding to the random blood glucose measurement condition 48 or 72 h after administration was weighed.
smiles,measurement,setting,value
CC[C@H](C)[C@H](NC(=O)[C@H](CC(C)C)NC(=O)[C@H](Cc1c[nH]c2ccccc12)NC(=O)[C@H](CCC(N)=O)NC(=O)[C@@H](NC(=O)[C@H](Cc1ccccc1)NC(=O)[C@H](C)NC(=O)[C@H](CCCCNC(=O)COCCOCCNC(=O)COCCOCCNC(=O)CC[C@H](NC(=O)CCCCCCCCCCCCCCCCC(=O)O)C(=O)O)NC(=O)[C@H](CCC(N)=O)NC(=O)[C@H](C)NC(=O)[C@@H](NC(=O)[C@H](CCCCN)NC(=O)[C@H](CC(=O)O)NC(=O)[C@H](CC(C)C)NC(=O)C(C)(C)NC(=O)[C@@H](NC(=O)[C@H](CO)NC(=O)[C@H](Cc1ccc(O)cc1)NC(=O)[C@H](CC(=O)O)NC(=O)[C@H](CO)NC(=O)[C@@H](NC(=O)[C@H](Cc1ccccc1)NC(=O)[C@@H](NC(=O)CNC(=O)[C@H](CCC(=O)O)NC(=O)C1(NC(=O)[C@@H](N)Cc2ccc(O)cc2)CCCC1)[C@@H](C)O)[C@@H](C)O)[C@@H](C)CC)[C@@H](C)CC)C(C)C)C(=O)N[C@@H](C)C(=O)NCC(=O)NCC(=O)N1CCC[C@H]1C(=O)N[C@@H](CO)C(=O)N[C@@H](CO)C(=O)NCC(=O)N[C@@H](C)C(=O)N1CCC[C@H]1C(=O)N1CCC[C@H]1C(=O)N1CCC[C@H]1C(=O)N[C@@H](CO)C(N)=O [ID NO: 9],pEC50,mGIPR,11.16
same,pEC50,mGLP-1R,11.03
CCCCCCCCCCCCCCCC(=O)N[C@@H](CCC(=O)NCCCC[C@H](NC(=O)[C@H](CCC(N)=O)NC(=O)[C@H](C)NC(=O)[C@@H](NC(=O)[C@H](CCCCN)NC(=O)[C@H](CC(=O)O)NC(=O)[C@H](CC(C)C)NC(=O)C1(NC(=O)[C@@H](NC(=O)[C@H](CO)NC(=O)[C@H](Cc2ccc(O)cc2)NC(=O)[C@H](CC(=O)O)NC(=O)[C@H](CO)NC(=O)[C@@H](NC(=O)[C@H](Cc2ccccc2)NC(=O)[C@@H](NC(=O)CNC(=O)[C@H](CCC(=O)O)NC(=O)C(C)(C)NC(=O)[C@@H](N)Cc2ccc(O)cc2)[C@@H](C)O)[C@@H](C)O)[C@@H](C)CC)CCCC1)[C@@H](C)CC)C(=O)N[C@@H](C)C(=O)N[C@@H](Cc1ccccc1)C(=O)N[C@H](C(=O)N[C@@H](CCC(N)=O)C(=O)N[C@@H](Cc1c[nH]c2ccccc12)C(=O)N[C@@H](CC(C)C)C(=O)N[C@H](C(=O)N[C@@H](C)C(=O)NCC(=O)NCC(=O)N1CCC[C@H]1C(=O)N[C@@H](CO)C(=O)N[C@@H](CO)C(=O)NCC(=O)N[C@@H](C)C(=O)N1CCC[C@H]1C(=O)N1CCC[C@H]1C(=O)N1CCC[C@H]1C(=O)N[C@@H](CO)C(N)=O)[C@@H](C)CC)C(C)C)C(=O)O [ID NO: 21],pEC50,"mGIPR; HEK293 cells transfected with GIPR, cAMP, 20 min incubation, read-out: mGIPR EC50",11.09
same,pEC50,"mGLP-1R; HEK293 cells transfected with GLP-1R, cAMP, 20 min incubation, read-out: mGLP-1R EC50",10.75
CC[C@H](C)[C@H](NC(=O)[C@H](CC(C)C)NC(=O)[C@H](Cc1c[nH]c2ccccc12)NC(=O)[C@H](CCC(N)=O)NC(=O)[C@@H](NC(=O)[C@H](Cc1ccccc1)NC(=O)[C@H](C)NC(=O)[C@H](CCCCNC(=O)COCCOCCNC(=O)COCCOCCNC(=O)CC[C@H](NC(=O)CCCCCCCCCCCCCCCCC(=O)O)C(=O)O)NC(=O)[C@H](CCC(N)=O)NC(=O)[C@H](C)NC(=O)[C@@H](NC(=O)[C@H](CCCCN)NC(=O)[C@H](CC(=O)O)NC(=O)[C@H](CC(C)C)NC(=O)C1(NC(=O)[C@@H](NC(=O)[C@H](CO)NC(=O)[C@H](Cc2ccc(O)cc2)NC(=O)[C@H](CC(=O)O)NC(=O)[C@H](CO)NC(=O)[C@@H](NC(=O)[C@H](Cc2ccccc2)NC(=O)[C@@H](NC(=O)CNC(=O)[C@H](CCC(=O)O)NC(=O)C2(NC(=O)[C@@H](N)Cc3ccc(O)cc3)CCC2)[C@@H](C)O)[C@@H](C)O)[C@@H](C)CC)CCC1)[C@@H](C)CC)C(C)C)C(=O)N[C@@H](C)C(=O)NCC(=O)NCC(=O)N1CCC[C@H]1C(=O)N[C@@H](CO)C(=O)N[C@@H](CO)C(=O)NCC(=O)N[C@@H](C)C(=O)N1CCC[C@H]1C(=O)N1CCC[C@H]1C(=O)N1CCC[C@H]1C(=O)N[C@@H](CO)C(N)=O [ID NO: 2],pEC50,mGLP-1R,11.21
CC[C@H](C)[C@H](NC(=O)[C@H](CC(C)C)NC(=O)[C@H](Cc1c[nH]c2ccccc12)NC(=O)[C@H](CCC(N)=O)NC(=O)[C@@H](NC(=O)[C@H](Cc1ccccc1)NC(=O)[C@H](C)NC(=O)[C@H](CCCCNC(=O)COCCOCCNC(=O)COCCOCCNC(=O)CC[C@H](NC(=O)CCCCCCCCCCCCCCCCC(=O)O)C(=O)O)NC(=O)[C@H](CCC(N)=O)NC(=O)[C@H](C)NC(=O)[C@@H](NC(=O)[C@H](CCCCN)NC(=O)[C@H](CC(=O)O)NC(=O)[C@H](CC(C)C)NC(=O)[C@@H](NC(=O)[C@@H](NC(=O)[C@H](CO)NC(=O)[C@H](Cc1ccc(O)cc1)NC(=O)[C@H](CC(=O)O)NC(=O)[C@H](CO)NC(=O)[C@@H](NC(=O)[C@H](Cc1ccccc1)NC(=O)[C@@H](NC(=O)CNC(=O)[C@H](CCC(=O)O)NC(=O)[C@@H](NC(=O)[C@@H](N)Cc1ccc(O)cc1)C(C)C)[C@@H](C)O)[C@@H](C)O)[C@@H](C)CC)C(C)C)[C@@H](C)CC)C(C)C)C(=O)N[C@@H](C)C(=O)NCC(=O)NCC(=O)N1CCC[C@H]1C(=O)N[C@@H](CO)C(=O)N[C@@H](CO)C(=O)NCC(=O)N[C@@H](C)C(=O)N1CCC[C@H]1C(=O)N1CCC[C@H]1C(=O)N1CCC[C@H]1C(=O)N[C@@H](CO)C(N)=O [ID NO: 1] (H-YVEGTFTSDYSIVLDKIAQK([AEEA-AEEA-γGlu-C18 diacid])AFVQWLIAGGPSSGAPPPS-NH2),"Blood glucose at different time after administration, 0 h","ob/ob mice; 0 h (before administration), X ± s, n = 7",20.31 ± 0.99 mmol/L
same,"Decrease rate of blood glucose at different time after administration, 2 h",ob/ob mice; 2 h,50.2%
same,"Blood glucose at different time after administration, 2 h","ob/ob mice; 2 h, X ± s, n = 7",10.12 ± 0.87 mmol/L
same,"Decrease rate of blood glucose at different time after administration, 4 h",ob/ob mice; 4 h,51.1%
same,"Blood glucose at different time after administration, 4 h","ob/ob mice; 4 h, X ± s, n = 7",9.94 ± 0.86 mmol/L
same,"Decrease rate of blood glucose at different time after administration, 6 h",ob/ob mice; 6 h,51.6%
same,"Blood glucose at different time after administration, 6 h","ob/ob mice; 6 h, X ± s, n = 7",9.83 ± 0.87 mmol/L
same,"Decrease rate of blood glucose at different time after administration, 10 h",ob/ob mice; 10 h,47.0%
same,"Blood glucose at different time after administration, 10 h","ob/ob mice; 10 h, X ± s, n = 7",10.76 ± 1.12 mmol/L
same,"Decrease rate of blood glucose at different time after administration, 24 h",ob/ob mice; 24 h,41.5%
same,"Blood glucose at different time after administration, 24 h","ob/ob mice; 24 h, X ± s, n = 7",11.89 ± 2.12 mmol/L
same,"Decrease rate of blood glucose at different time after administration, 34 h",ob/ob mice; 34 h,31.4%
same,"Blood glucose at different time after administration, 34 h","ob/ob mice; 34 h, X ± s, n = 7",13.93 ± 1.01 mmol/L
same,"Decrease rate of blood glucose at different time after administration, 48 h",ob/ob mice; 48 h,14.7%
same,AUC0-24 h Glu,"ob/ob mice; blood glucose curve area within 24 h, X ± s, n = 7",269.99 ± 19.45 mmol·h/L
same,AUC0-24 h Glu Decrease rate,ob/ob mice; versus model control group,47.1%
same,"Changes of random body weight at different time after administration, 0 h",[1]; 0 h,0.0 ± 0.0 g
same,"Random body weight at different time after administration, 0 h",[1]; 0 h,43.2 ± 0.5 g
same,"Changes of random body weight at different time after administration, 24 h",[1]; 24 h,-1.1 ± 0.2 g
same,"Random body weight at different time after administration, 24 h",[1]; 24 h,42.0 ± 0.5 g
same,"Changes of random body weight at different time after administration, 48 h",[1]; 48 h,-0.6 ± 0.1 g
same,"Random body weight at different time after administration, 48 h",[1]; 48 h,42.7 ± 0.6 g
same,pEC50,mGLP-1R,10.84
